According to patent US20130133650A1, “GAS-BASED TREATMENT FOR INFECTIVE DISEASE” (priority 2010, published 2013):

Experiments:
M. bovis BCG = type: cell-based, Mycobacterium bovis BCG; conditions: jar flushed with gas, 1-24 hour (FIG. 5)
Mycobacterium bovis BCG = conditions: cited from earlier work
[1] = tested on: THP-1 macrophage-like cells; experiment: Viability of human macrophage-like cells following anaerobic shock (trypan blue exclusion); type: cell-based; conditions: uninfected differentiated THP-1 cells, various treatment times (FIG. 3(B))
Method: THP-1 cells were grown and induced for differentiation as above. The monolayer of differentiated macrophage-like cells was dispersed by trypsinization, after which cell suspensions were transferred to Vacutainer tubes and shocked with anaerobic gas as described for bacterial cultures. At various times, 20-microliter aliquots of suspended cells (˜10^6 cells/ml) were mixed with an equal volume of Trypan Blue staining solution (0.4% Trypan blue, Sigma Chemicals CO., St. Louis, Mo.)). Total and blue cell numbers were determined by light microscopy using a hemocytometer.
Percent of white (live) cells was plotted relative to an untreated sample.

[2] = tested on: M. tuberculosis H37Rv inside THP-1 macrophage-like cells; experiment: Anaerobic shock of macrophage-like cells infected with M. tuberculosis, bacterial survival; conditions: treatment for the indicated times (FIG. 3(A))
[3] = rabbit, in vivo

[HH] [hydrogen]
killing of bacteria on agar surface (M. bovis BCG): killed

NCCN(CCN)/[N+]([O-])=N/O [DETA-NO, diethylene-triamine-nitric oxide adduct]
effect of pretreatment on anaerobic shock-caused cell death (Mycobacterium bovis BCG; pretreatment before anaerobic shock): not blocked | duration of sustained growth arrest (Mycobacterium bovis BCG; single treatment): 72 h

[Ar] [argon]
macrophage viability (trypan blue exclusion) [1]: slightly reduced viability at long treatment times | intracellular bacillary viability [2]: only reduced bacillary viability moderately | side-effect of one-lung anaerobic shock [3]: no obvious side-effect
